In patent publication US20100303758A1, “Novel Glucocorticoid Receptor Agonists” (priority 2009, published 2010):

Experiments:
human GR = biological target: T1, human GR (Homo sapiens, UniProt P04150); test: GR agonist potency, MMTV-luciferase reporter in SW1353 cells; assay type: cell-based; settings: human chondrosarcoma cell-line SW1353 stably transfected with MMTV-luciferase reporter; approx. 18 hours; data as percentage of 1 μM dexamethasone positive control
T1 construct: SW1353 naturally expresses human GR; endogenous in cells; host or cells: human chondrosarcoma cell-line SW1353 stably transfected with an MMTV-luciferase reporter construct
T1 sequence (P04150 1-777): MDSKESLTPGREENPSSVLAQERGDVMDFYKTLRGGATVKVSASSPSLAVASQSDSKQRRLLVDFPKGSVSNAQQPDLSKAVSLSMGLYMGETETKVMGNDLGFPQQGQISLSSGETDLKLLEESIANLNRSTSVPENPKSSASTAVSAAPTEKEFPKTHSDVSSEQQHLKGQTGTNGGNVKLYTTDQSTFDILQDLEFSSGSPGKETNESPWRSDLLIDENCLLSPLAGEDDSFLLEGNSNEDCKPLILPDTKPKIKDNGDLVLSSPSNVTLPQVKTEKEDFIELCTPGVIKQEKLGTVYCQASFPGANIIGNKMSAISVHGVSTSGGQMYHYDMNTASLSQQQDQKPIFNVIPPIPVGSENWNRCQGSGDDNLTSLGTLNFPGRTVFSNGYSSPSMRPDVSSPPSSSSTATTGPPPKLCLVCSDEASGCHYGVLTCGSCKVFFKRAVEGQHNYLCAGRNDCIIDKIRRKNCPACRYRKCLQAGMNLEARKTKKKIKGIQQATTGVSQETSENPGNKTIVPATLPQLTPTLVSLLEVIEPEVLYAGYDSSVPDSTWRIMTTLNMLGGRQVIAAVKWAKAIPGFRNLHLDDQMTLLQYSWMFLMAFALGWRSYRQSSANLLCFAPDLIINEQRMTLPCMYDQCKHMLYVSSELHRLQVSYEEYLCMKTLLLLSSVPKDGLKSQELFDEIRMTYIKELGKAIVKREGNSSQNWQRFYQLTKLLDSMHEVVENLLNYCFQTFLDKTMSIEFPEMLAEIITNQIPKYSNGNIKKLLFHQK
Method: Glucococorticoid receptor (GR) agonist potency was determined in the human chondrosarcoma cell-line SW1353 stably transfected with an MMTV-luciferase reporter construct. SW1353 naturally expresses human GR, which on binding a glucocorticoid agonist activates glucocorticoid response elements within the MMTV promoter, driving expression of the luciferase gene.
Frozen SW1353 cells were revived in DMEM medium, without sodium pyruvate or phenol red, supplemented with 2 mM L-glutamine, 1 μg/ml insulin, 2 mg/ml lactalbumin hydrosylate and 0.5 μg/ml ascorbate. Cells were seeded at approximately 5000 cells/well (35 μl/well) in 384-well clear bottom, tissue culture treated plates. Steroid dose-response dilutions were prepared in steroid diluent (PBS containing 2.5% (v/v) DMSO and 0.05% (v/v) pluronic detergent) and 5 μl added to each well. The volume was made up to 50 μl per well with steroid diluent. Positive control wells contained 1 μM dexamethasone. Plates were incubated for approximately 18 hours at 37° C. in an air/5% CO2 atmosphere in a humidified incubator before Britelite reagent (10 μl; Perkin-Elmer) was added to each well. Each plate was incubated for 2 minutes in the dark and luminescence quantified using a LJL Biosystems Analyst luminometer. Data for test compounds (expressed as percentage of the dexamethasone positive control) were used to construct dose response curves from which EC50 values were estimated.

[1] = Inhibition of TNF-α release from LPS stimulated isolated human PBMC; assay type: cell-based; settings: Homo sapiens, PBMC, read-out: IC50 (nM) for inhibition of TNF-α release
Method: The anti-inflammatory activity of the compounds against human leukocytes in vitro was also evaluated by determining inhibition of tumour necrosis factor-α (TNF-α) release from lipopolysaccharide (LPS) stimulated isolated human peripheral mononuclear cells (PBMC).
Peripheral venous blood from healthy, non-medicated donors was collected using ethylenediaminetetraacetic acid (EDTA) as the anti-coagulant. For PBMC preparation, samples of blood were diluted 1:1 with sterile phosphate buffered saline and then separated using ACCUSPIN™ System-Histopaque®-1077 tubes (Sigma-Aldrich, St Louis, Mo.), centrifuged at 400 g for 35 minutes. Buffy coat cells were removed into PBS, centrifuged at 200 g for 10 minutes and re-suspended in PBMC assay buffer (Hanks Balanced Salt Solution, 0.28% [w/v] 4-[2-hydroxyethyl]-1-piperazineethanesulfonic acid [HEPES], 0.01% [w/v] low-endotoxin bovine serum albumin [BSA]. A differential white cell count was performed and PBMC's diluted to 1×10^6 lymphocytes per ml in PBMC assay buffer.
Test compounds were dissolved in DMSO and diluted in PBMC assay buffer (final DMSO concentration 1%) to cover an appropriate concentration range, e.g 0.001 nM to 10000 nM. Samples of test compound solution or vehicle (20 μl) were added into 96-well tissue culture treated plates (Corning) and PBMC (160 μl) added to each well. The assay mixtures were incubated at 37° C. for 1 h in a humidified incubator containing an atmosphere of air supplemented with 5% CO2 before adding LPS (20 μl of 100 ng/ml for PBMC). Plates were returned to the incubator for a further 18 hours, and then centrifuged before recovery of samples of supernatant. TNF-α in the samples was determined using an enzyme-linked immunosorbent assay (ELISA) (Invitrogen kit no CHC-1754; Invitrogen Carlsbad, Calif.) and following the manufacturers instructions. Dose response curves were constructed from which IC50 values were calculated.

SMILES	EC50 (human GR)	IC50 [1]
C[C@]12C=CC(=O)C=C1CC[C@H]1[C@@H]3CC[C@](OC(=O)c4ccc(Oc5cccc(O)c5)cc4)(C(=O)OCC#N)[C@@]3(C)C[C@H](O)[C@@]12F [Example 17, cyanomethyl (11beta,17alpha)-9-fluoro-11-hydroxy-17-{[4-(3-hydroxyphenoxy)benzoyl]oxy}-3-oxoandrosta-1,4-diene-17-carboxylate]	37.9 nM	0.157 nM
C[C@]12C=CC(=O)C=C1CC[C@H]1[C@@H]3CC[C@](OC(=O)c4ccc(Sc5ccccc5)c(O)c4)(C(=O)OCC#N)[C@@]3(C)C[C@H](O)[C@@]12F [Example 19, cyanomethyl (11beta,17alpha)-9-fluoro-11-hydroxy-17-{[3-hydroxy-4-(phenylthio)benzoyl]oxy}-3-oxoandrosta-1,4-diene-17-carboxylate]	44.8 nM	0.3 nM
C[C@]12C=CC(=O)C=C1CC[C@H]1[C@@H]3CC[C@](OC(=O)c4ccc(Sc5ccc(O)c(Cl)c5)cc4)(C(=O)OCC#N)[C@@]3(C)C[C@H](O)[C@@]12F [Example 20, cyanomethyl (11beta,17alpha)-17-({4-[(3-chloro-4-hydroxyphenyl)thio]-benzoyl}oxy)-9-fluoro-11-hydroxy-3-oxoandrosta-1,4-diene-17-carboxylate]	39.2 nM	0.29 nM
C[C@]12C=CC(=O)C=C1CC[C@H]1[C@@H]3CC[C@](OC(=O)c4ccc(Oc5ccccc5)cc4O)(C(=O)OCC#N)[C@@]3(C)C[C@H](O)[C@@]12F [Example 21, cyanomethyl(11beta,17alpha)-9-fluoro-11-hydroxy-17-[(2-hydroxy-4-phenoxybenzoyl)oxy]-3-oxoandrosta-1,4-diene-17-carboxylate]	49 nM	0.656 nM
C[C@]12C=CC(=O)C=C1CC[C@H]1[C@@H]3CC[C@](OC(=O)c4ccc(Cc5ccccc5)cc4)(C(=O)SCF)[C@@]3(C)C[C@H](O)[C@@]12F [Example 22, (11beta,17alpha)-9-fluoro-17-{[(fluoromethyl)thio]carbonyl}-11-hydroxy-3-oxoandrosta-1,4-dien-17-yl 4-benzylbenzoate]	69.9 nM	0.087 nM
CSc1cccc(Sc2ccc(C(=O)O[C@]3(C(=O)SCF)CC[C@H]4[C@@H]5CCC6=CC(=O)C=C[C@]6(C)[C@@]5(F)[C@@H](O)C[C@@]43C)cc2)c1 [Example 23, (11beta,17alpha)-9-fluoro-17-{[(fluoromethyl)thio]carbonyl}-11-hydroxy-3-oxoandrosta-1,4-dien-17-yl 4-{[3-(methylthio)phenyl]thio}benzoate]	52.5 nM	0.536 nM
C[C@]12C=CC(=O)C=C1CC[C@H]1[C@@H]3CC[C@](OC(=O)c4ccc(Sc5ccccc5)cc4)(C(=O)SCF)[C@@]3(C)C[C@H](O)[C@@]12F [Example 24, (11beta,17alpha)-9-fluoro-17-{[(fluoromethyl)thio]carbonyl}-11-hydroxy-3-oxoandrosta-1,4-dien-17-yl 4-(phenylthio)benzoate]	25.8 nM	0.117 nM
C[C@]12C=CC(=O)C=C1CC[C@H]1[C@@H]3CC[C@](OC(=O)c4ccc(Oc5ccccc5)cc4)(C(=O)SCF)[C@@]3(C)C[C@H](O)[C@@]12F [Example 25, (11beta, 17alpha)-9-fluoro-17-{[(fluoromethyl)thio]carbonyl}-11-hydroxy-3-oxoandrosta-1,4-dien-17-yl 4-phenoxybenzoate]	19.8 nM	0.026 nM
C[C@]12C=CC(=O)C=C1CC[C@H]1[C@@H]3CC[C@](OC(=O)c4ccc(Oc5ccc(O)c(Cl)c5)cc4)(C(=O)SCF)[C@@]3(C)C[C@H](O)[C@@]12F [Example 26, (11beta, 17alpha)-9-fluoro-17-{[(fluoromethyl)thio]carbonyl}-11-hydroxy-3-oxoandrosta-1,4-dien-17-y1 4-(3-chloro-4-hydroxyphenoxy)-benzoate]	42.6 nM	0.177 nM
C[C@]12C=CC(=O)C=C1CC[C@H]1[C@@H]3CC[C@](OC(=O)c4ccc(Sc5ccc(O)c(Cl)c5)cc4)(C(=O)SCF)[C@@]3(C)C[C@H](O)[C@@]12F [Example 27, (11beta,17alpha)-9-fluoro-17-[((fluoromethyl)thio]carbonyl)-11-hydroxy-3-oxoandrosta-1,4-dien-17-yl 4-[(3-chloro-4-hydroxyphenyl)thio]benzoate]	43.3 nM	0.326 nM
C[C@]12C=CC(=O)C=C1CC[C@H]1[C@@H]3CC[C@](OC(=O)c4ccc(Sc5ccccc5)cc4)(C(=O)SCC#N)[C@@]3(C)C[C@H](O)[C@@]12F [Example 28, (11beta,17alpha)-17-{[(cyanomethyl)thio]carbonyl}-9-fluoro-11-hydroxy-3-oxoandrosta-1,4-dien-17-yl 4-(phenylthio)benzoate]	37.3 nM	0.231 nM
C[C@]12C=CC(=O)C=C1CC[C@H]1[C@@H]3CC[C@](OC(=O)c4ccc(Oc5ccccc5)cc4)(C(=O)SCC#N)[C@@]3(C)C[C@H](O)[C@@]12F [Example 29, (11beta,17alpha)-17-{[(cyanomethyl)-thio]carbonyl}-9-fluoro-11-hydroxy-3-oxoandrosta-1,4-dien-17-yl 4-phenoxybenzoate]	78.4 nM	0.156 nM
C[C@]12C=CC(=O)C=C1CC[C@H]1[C@@H]3CC[C@](OC(=O)c4ccc(Sc5ccccc5)cc4)(C(=O)SCCl)[C@@]3(C)C[C@H](O)[C@@]12F [Example 30, (11beta,17alpha)-17-{[(chloromethyl)thio]carbonyl}-9-fluoro-11-hydroxy-3-oxoandrosta-1,4-dien-17-yl 4-(phenylthio)benzoate]	20.6 nM	0.256 nM
C[C@]12C=CC(=O)C=C1[C@@H](F)C[C@H]1[C@@H]3CC[C@](OC(=O)c4ccc(OCc5ccccc5)cc4)(C(=O)CO)[C@@]3(C)C[C@H](O)[C@@]12F [Example 31, (6alpha,11beta)-6,9-difluoro-11,21-dihydroxy-3,20-dioxopregna-1,4-dien-17-yl 4-(benzyloxy)benzoate]	102 nM	0.152 nM
C[C@]12C=CC(=O)C=C1CC[C@H]1[C@@H]3CC[C@](OC(=O)c4ccc(OCc5ccccc5)cc4)(C(=O)CO)[C@@]3(C)C[C@H](O)[C@@]12F [Example 32, (11beta)-9-fluoro-11,21-dihydroxy-3,20-dioxopregna-1,4-dien-17-yl 4-(benzyloxy)benzoate]	36 nM	0.506 nM
